Converted amounts (≈) assume the structure as drawn.
Columns and labels:
P. aeruginosa MSC01035 = experiment: MIC, agar plate dilution method, P. aeruginosa MSC01035; type: cell-based, Pseudomonas aeruginosa; settings: P. aeruginosa MSC01035, ABK-resistant
Method: (§1) As for the representative compounds of a new aminoglycoside antibiotic of the present invention described in Examples, the minimal inhibitory concentration (MIC, μg/mL) was measured for various assay strains of bacteria using an agar plate dilution method in accordance with the method described in the Japan Society of Chemotherapy.

S. aureus MF490 = experiment: MIC, agar plate dilution method, S. aureus MF490; type: cell-based, Staphylococcus aureus; settings: for minimal inhibitory concentration (MIC): S. aureus MF490, MRSA
Method: as §1

[1] = test system: K. pneumoniae ATCC BAA-2146; experiment: MIC, agar plate dilution method, K. pneumoniae ATCC BAA-2146; type: cell-based, Klebsiella pneumoniae; settings: for minimal inhibitory concentration (MIC): K. pneumoniae ATCC BAA-2146, NDM-producing strain
Method: as §1

S. aureus RN4220 = experiment: MIC, agar plate dilution method, S. aureus RN4220; type: cell-based, Staphylococcus aureus; settings: for minimal inhibitory concentration (MIC): S. aureus RN4220, Sensitive bacterium
Method: as §1

P. aeruginosa MSC17707 = experiment: MIC, agar plate dilution method, P. aeruginosa MSC17707; type: cell-based, Pseudomonas aeruginosa; settings: for minimal inhibitory concentration (MIC): P. aeruginosa MSC17707, AMK-resistant
Method: as §1

[2] = test system: A. baumannii ATCC BAA-1710; experiment: MIC, agar plate dilution method, A. baumannii ATCC BAA-1710; type: cell-based, Acinetobacter baumannii; settings: for minimal inhibitory concentration (MIC): A. baumannii ATCC BAA-1710, MDRA
Method: as §1

P. aeruginosa PAO1 = experiment: MIC, agar plate dilution method, P. aeruginosa PAO1; type: cell-based, Pseudomonas aeruginosa; settings: for minimal inhibitory concentration (MIC): P. aeruginosa PAO1, Sensitive bacterium
Method: as §1

P. aeruginosa PAO1/GN315 = experiment: MIC, agar plate dilution method, P. aeruginosa PAO1/GN315; type: cell-based, Pseudomonas aeruginosa; settings: for minimal inhibitory concentration (MIC): P. aeruginosa PAO1/GN315, AMK-resistant
Method: as §1

[3] = test system: K. pneumoniae ATCC BAA-1705; experiment: MIC, agar plate dilution method, K. pneumoniae ATCC BAA-1705; type: cell-based, Klebsiella pneumoniae; settings: for minimal inhibitory concentration (MIC): K. pneumoniae ATCC BAA-1705, KPC-producing strain
Method: as §1

E. coli JM109/pMW218 = experiment: MIC, agar plate dilution method, E. coli JM109/pMW218; type: cell-based, Escherichia coli; settings: for minimal inhibitory concentration (MIC): E. coli JM109/pMW218, Sensitive bacterium
Method: as §1

S. marcescens TH-0447 = experiment: MIC, agar plate dilution method, S. marcescens TH-0447; type: cell-based, Serratia marcescens; settings: for minimal inhibitory concentration (MIC): S. marcescens TH-0447, AMK-resistant
Method: as §1

S. marcescens GN6944 = experiment: MIC, agar plate dilution method, S. marcescens GN6944; type: cell-based, Serratia marcescens; settings: S. marcescens GN6944, GM-resistant
Method: as §1

E. faecium ATCC19434 = experiment: MIC, agar plate dilution method, E. faecium ATCC19434; type: cell-based, Enterococcus faecium; settings: for minimal inhibitory concentration (MIC): E. faecium ATCC19434
Method: as §1

S. aureus RN4220/pMS520 = experiment: MIC, agar plate dilution method, S. aureus RN4220/pMS520; type: cell-based, Staphylococcus aureus; settings: for minimal inhibitory concentration (MIC): S. aureus RN4220/pMS520, MRSA
Method: as §1

SMILES	minimal inhibitory concentration (MIC) (P. aeruginosa MSC01035) [µg/mL]	minimal inhibitory concentration (MIC) (S. aureus MF490) [µg/mL]	minimal inhibitory concentration (MIC) [1] [µg/mL]	minimal inhibitory concentration (MIC) (S. aureus RN4220) [µg/mL]	minimal inhibitory concentration (MIC) (P. aeruginosa MSC17707) [µg/mL]	minimal inhibitory concentration (MIC) [2] [µg/mL]	minimal inhibitory concentration (MIC) (P. aeruginosa PAO1) [µg/mL]	minimal inhibitory concentration (MIC) (P. aeruginosa PAO1/GN315) [µg/mL]	minimal inhibitory concentration (MIC) [3] [µg/mL]	minimal inhibitory concentration (MIC) (E. coli JM109/pMW218) [µg/mL]	minimal inhibitory concentration (MIC) (S. marcescens TH-0447) [µg/mL]	minimal inhibitory concentration (MIC) (S. marcescens GN6944) [µg/mL]	minimal inhibitory concentration (MIC) (E. faecium ATCC19434) [µg/mL]	minimal inhibitory concentration (MIC) (S. aureus RN4220/pMS520) [µg/mL]	other results
CN[C@@H]1[C@@H](O[C@H]2O[C@H](CO)[C@@H](N)C[C@H]2O)O[C@H]2C[C@@H](N)[C@@H](O[C@@H]3[C@@H](N)C[C@@H](N)C[C@@H]3O)O[C@@H]2[C@@H]1O [Compound N5, 6,3″-dideoxy-5-epiapramycin]	8 (≈ 15.8 µM)	4 (≈ 7.88 µM)	2 (≈ 3.94 µM)	2 (≈ 3.94 µM)	8 (≈ 15.8 µM)	8 (≈ 15.8 µM)	4 (≈ 7.88 µM)	4 (≈ 7.88 µM)	2 (≈ 3.94 µM)	1 (≈ 1.97 µM)	8 (≈ 15.8 µM)	4 (≈ 7.88 µM)	8 (≈ 15.8 µM)	2 (≈ 3.94 µM)	–
CNC1C(O[C@H]2OC(CO)[C@@H](NC(=O)[C@@H](O)CN)[C@H](O)C2O)O[C@H]2C[C@H](N)[C@@H](O[C@@H]3C(N)C[C@@H](N)C[C@H]3O)OC2C1O (stereo partly drawn) [Compound V1-r, 6-deoxy-5-epi-4″-N-(L-isoseryl)apramycin]	–	–	–	–	–	–	–	–	–	–	–	–	–	–	MIC (P. aeruginosa MSC01035; Pseudomonas aeruginosa, read-out: minimal inhibitory concentration (MIC)): 4 µg/mL (≈ 6.55 µM); MIC (S. aureus MF490; Staphylococcus aureus, MRSA, read-out: minimal inhibitory concentration (MIC)): 4 µg/mL (≈ 6.55 µM); MIC ([1]; Klebsiella pneumoniae, ATCCBAA2146, K. pneumoniae ATCC BAA-2146, NDM-producing strain, read-out: minimal inhibitory concentration (MIC)): 1 µg/mL (≈ 1.64 µM); MIC (S. aureus RN4220; Staphylococcus aureus, RN4220, S. aureus RN4220, Sensitive bacterium, read-out: minimal inhibitory concentration (MIC)): 1 µg/mL (≈ 1.64 µM); MIC (P. aeruginosa MSC17707; Pseudomonas aeruginosa, MSC17707, P. aeruginosa MSC17707, AMK-resistant, read-out: minimal inhibitory concentration (MIC)): 2 µg/mL (≈ 3.28 µM); MIC ([2]; Acinetobacter baumannii, ATCCBAA1710, A. baumannii ATCC BAA-1710, MDRA, read-out: minimal inhibitory concentration (MIC)): 4 µg/mL (≈ 6.55 µM); MIC (P. aeruginosa PAO1; Pseudomonas aeruginosa, PAO1, P. aeruginosa PAO1, Sensitive bacterium, read-out: minimal inhibitory concentration (MIC)): 2 µg/mL (≈ 3.28 µM); MIC (P. aeruginosa PAO1/GN315; Pseudomonas aeruginosa, read-out: minimal inhibitory concentration (MIC), P. aeruginosa PAO1/GN315, AMK-resistant): 2 µg/mL (≈ 3.28 µM); MIC ([3]; Klebsiella pneumoniae, ATCCBAA1705, K. pneumoniae ATCC BAA-1705, KPC-producing strain, read-out: minimal inhibitory concentration (MIC)): 1 µg/mL (≈ 1.64 µM); MIC (E. coli JM109/pMW218; Escherichia coli, JM109/PMW218, E. coli JM109/pMW218, Sensitive bacterium, read-out: minimal inhibitory concentration (MIC)): 0.5 µg/mL (≈ 0.819 µM); MIC (S. marcescens TH-0447; Serratia marcescens, TH0447, S. marcescens TH-0447, AMK-resistant, read-out: minimal inhibitory concentration (MIC)): 8 µg/mL (≈ 13.1 µM); MIC (S. marcescens GN6944; Serratia marcescens, read-out: minimal inhibitory concentration (MIC)): 8 µg/mL (≈ 13.1 µM); MIC (E. faecium ATCC19434; Enterococcus faecium, ATCC19434, E. faecium ATCC19434, read-out: minimal inhibitory concentration (MIC)): 8 µg/mL (≈ 13.1 µM); MIC (S. aureus RN4220/pMS520; Staphylococcus aureus, MRSA, read-out: minimal inhibitory concentration (MIC), S. aureus RN4220/pMS520, MRSA): 1 µg/mL (≈ 1.64 µM)
CN[C@@H]1[C@@H](O[C@H]2O[C@H](CO)[C@@H](N)[C@H](O)[C@H]2O)O[C@H]2C[C@@H](N)[C@@H](O[C@H]3[C@H](N)[C@@H](O)[C@H](N)C[C@@H]3N)O[C@@H]2[C@@H]1O [Compound E3, 5-amino-5-deoxyapramycin]	16 (≈ 29.7 µM)	16 (≈ 29.7 µM)	4 (≈ 7.43 µM)	8 (≈ 14.9 µM)	16 (≈ 29.7 µM)	16 (≈ 29.7 µM)	16 (≈ 29.7 µM)	16 (≈ 29.7 µM)	4 (≈ 7.43 µM)	4 (≈ 7.43 µM)	16 (≈ 29.7 µM)	16 (≈ 29.7 µM)	64 (≈ 119 µM)	8 (≈ 14.9 µM)	–
CN[C@@H]1[C@@H](O[C@H]2O[C@H](CO)[C@@H](NC(CN)CN)[C@H](O)[C@H]2O)O[C@H]2C[C@@H](N)[C@@H](O[C@H]3[C@@H](O)[C@@H](O)[C@H](N)C[C@@H]3N)O[C@@H]2[C@@H]1O [Compound S1-i, 4″-N-(1,3-diaminopropan-2-yl)-5-epiapramycin]	4 (≈ 6.54 µM)	4 (≈ 6.54 µM)	2 (≈ 3.27 µM)	2 (≈ 3.27 µM)	2 (≈ 3.27 µM)	4 (≈ 6.54 µM)	2 (≈ 3.27 µM)	4 (≈ 6.54 µM)	1 (≈ 1.63 µM)	1 (≈ 1.63 µM)	8 (≈ 13.1 µM)	4 (≈ 6.54 µM)	4 (≈ 6.54 µM)	2 (≈ 3.27 µM)	–
CNC1C(OC2OC(CO)C(NCC3(N)CCCC3)C(O)C2O)OC2CC(N)C(OC3C(N)CC(N)C(O)C3O)OC2C1O (stereo not shown) [Compound A4-c, 4″-N-((1-aminocyclopentyl)methyl)apramycin]	16 (≈ 25.1 µM)	16 (≈ 25.1 µM)	1 (≈ 1.57 µM)	4 (≈ 6.28 µM)	32 (≈ 50.3 µM)	32 (≈ 50.3 µM)	16 (≈ 25.1 µM)	16 (≈ 25.1 µM)	1 (≈ 1.57 µM)	1 (≈ 1.57 µM)	8 (≈ 12.6 µM)	8 (≈ 12.6 µM)	16 (≈ 25.1 µM)	4 (≈ 6.28 µM)	–
CNC1C(OC2OC(CO)C(NC(=N)N)C(O)C2O)OC2CC(N)C(OC3C(N)CC(N)C(O)C3N)OC2C1O (stereo not drawn) [Compound W2-a, 5-amino-4″-deamino-5-deoxy-5-epi-4″-guanidinoapramycin]	4 (≈ 6.89 µM)	4 (≈ 6.89 µM)	1 (≈ 1.72 µM)	1 (≈ 1.72 µM)	8 (≈ 13.8 µM)	8 (≈ 13.8 µM)	4 (≈ 6.89 µM)	4 (≈ 6.89 µM)	1 (≈ 1.72 µM)	1 (≈ 1.72 µM)	4 (≈ 6.89 µM)	4 (≈ 6.89 µM)	8 (≈ 13.8 µM)	1 (≈ 1.72 µM)	–
CNC1C(OC2OC(CO)C(N)C(O)C2O)OC2CC(N)C(OC3C(N)CC(N)CC3F)OC2C1O (stereo not shown) [Compound C8, 5,6-dideoxy-5-fluoroapramycin]	8 (≈ 15.2 µM)	8 (≈ 15.2 µM)	1 (≈ 1.9 µM)	2 (≈ 3.81 µM)	4 (≈ 7.61 µM)	8 (≈ 15.2 µM)	4 (≈ 7.61 µM)	4 (≈ 7.61 µM)	1 (≈ 1.9 µM)	1 (≈ 1.9 µM)	8 (≈ 15.2 µM)	4 (≈ 7.61 µM)	16 (≈ 30.4 µM)	2 (≈ 3.81 µM)	–
CNC1C(O[C@H]2OC(CO)[C@@H](NC(=O)CN)[C@H](O)C2O)O[C@H]2CC(N)[C@@H](O[C@@H]3C(N)C[C@@H](N)C(O)[C@H]3O)OC2C1O (single isomer, unassigned) [Compound V1-a, 4″-N-glycylapramycin]	4 (≈ 6.7 µM)	16 (≈ 26.8 µM)	2 (≈ 3.35 µM)	4 (≈ 6.7 µM)	8 (≈ 13.4 µM)	8 (≈ 13.4 µM)	4 (≈ 6.7 µM)	4 (≈ 6.7 µM)	2 (≈ 3.35 µM)	2 (≈ 3.35 µM)	8 (≈ 13.4 µM)	8 (≈ 13.4 µM)	32 (≈ 53.6 µM)	4 (≈ 6.7 µM)	–
